{
  "source": "patent US6962976B2",
  "about": "“Human TREK2, a stretch- and arachidonic acid-sensitive K+ channel activated by inhalational anesthetics and niluzole” (Centre National de la Recherche Scientifique-CNRS, priority 2000, dated 2005)",
  "key": {"[1]": {"biological_target": "T1, TREK2 (Homo sapiens, UniProt P57789)", "T1 construct": "expressed in transfected cells; host or cells: COS cells", "T1 sequence (P57789 1-538)": "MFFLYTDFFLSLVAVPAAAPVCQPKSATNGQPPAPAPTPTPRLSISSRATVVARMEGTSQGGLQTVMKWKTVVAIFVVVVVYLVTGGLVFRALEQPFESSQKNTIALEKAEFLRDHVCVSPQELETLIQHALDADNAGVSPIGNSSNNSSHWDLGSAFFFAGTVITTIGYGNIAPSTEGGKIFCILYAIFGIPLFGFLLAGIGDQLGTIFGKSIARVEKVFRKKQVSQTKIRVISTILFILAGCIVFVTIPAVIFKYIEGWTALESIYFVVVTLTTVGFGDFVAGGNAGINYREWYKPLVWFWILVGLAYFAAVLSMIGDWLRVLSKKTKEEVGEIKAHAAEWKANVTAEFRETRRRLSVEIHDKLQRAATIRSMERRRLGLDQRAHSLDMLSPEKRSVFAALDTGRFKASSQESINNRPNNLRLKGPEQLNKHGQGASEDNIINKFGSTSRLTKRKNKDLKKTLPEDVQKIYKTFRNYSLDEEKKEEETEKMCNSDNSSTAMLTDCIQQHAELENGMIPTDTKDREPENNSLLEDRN", "experiment": "Whole-cell patch-clamp of TREK2 currents in transfected COS cells", "format": "cell-based", "settings": "for effect on TREK2 current in COS cells transfected with only TREK2: no receptor co-expressed; for activation of TREK2 by fatty acids and lysophospholipids (in words): whole-cell current", "procedure": "For inside-out patch recordings, pipettes were filled with the EXT solution and the bathing solution was the INT solution buffered either at pH 7.3 or at pH 5.6 in the internal acidosis experiments. Cells were continuously superfused with a microperfusion system during the experiment (0.2 ml per min) done at room temperature. A RK400 patch-clamp amplifier was used for whole-cell and single-channel recordings (Bio-Logic, Claix, France). Single-channel data were low-pass filtered at 5 KHz and digitized at 50 KHz using a DAT recorder (Bio-Logic, Claix, France). pClamp software was used to analyze whole-cell data and Biopatch software (Bio-Logic) to analyze single-channel data.\nConcentrations of volatile anesthetics were adjusted from saturated solutions (isoflurane, 15.3 mM; halothane, 17.5 mM and chloroform, 66.6 mM) in saline at room temperature (16). Mechanical stimulation was applied through an open loop pressure generating system and monitored at the level of the patch pipette by a calibrated pressure sensor (17)."}, "[2]": {"test_system": "TREK2 co-expressed with 5HT4sR", "procedure": "(§1) The voltage-clamp protocol consists of a voltage-ramp of 800 ms duration starting from a holding potential of −80 mV applied every 10 s. The current was monitored at +100 mV.\n(§2) COS cells were seeded at a density of 20,000 cells per 35 mm dish, 24 h prior transfection. Cells were transiently transfected by the classical DEAE-dextran method with 0.2 μg of pIRES-CD8. TREK2 with or without mGluR1, mGluR2 or 5HT4sR expression vectors (a generous gift of Drs J P Pin and A Dumuis, Montpellier, France).\n(§3) Transfected cells were visualized 48 h after transfection using the anti-CD8 antibody-coated beads method.\n(§4) TREK2 was co-expressed with 5HT4sR, a Gs-coupled receptor. […] A third type of G-protein coupled receptor was co-expressed with TREK2. This receptor is the Gq-coupled mGluR1 receptor. […] The Gq-protein is commonly associated with activation of phospholipase C and the consequent production of diacylglycerol (DAG) and inositol 1,4,5-triphosphate (IP 3). Ultimately, DAG leads to activation of PKC and IP 3 to an increase of intracellular Ca^2+."}, "[3]": {"biological_target": "T2, TREK1 (Homo sapiens, UniProt O95069)", "T2 sequence (O95069 1-426)": "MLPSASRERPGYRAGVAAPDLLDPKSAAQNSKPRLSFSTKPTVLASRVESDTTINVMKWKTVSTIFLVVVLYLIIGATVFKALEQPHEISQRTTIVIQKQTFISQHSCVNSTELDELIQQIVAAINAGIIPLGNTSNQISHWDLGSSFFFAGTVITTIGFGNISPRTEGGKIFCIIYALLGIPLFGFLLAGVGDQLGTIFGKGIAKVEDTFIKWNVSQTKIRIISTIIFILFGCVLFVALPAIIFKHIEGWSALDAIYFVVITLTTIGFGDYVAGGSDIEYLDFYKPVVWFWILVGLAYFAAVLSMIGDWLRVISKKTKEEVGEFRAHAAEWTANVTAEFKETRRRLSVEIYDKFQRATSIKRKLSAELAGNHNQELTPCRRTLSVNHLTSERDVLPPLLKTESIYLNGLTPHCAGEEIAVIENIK", "settings": "cited from earlier work"}, "[4]": {"test_system": "TREK2 co-expressed with mGluR2", "experiment": "Whole-cell TREK2 current, TREK2 co-expressed with Gi-coupled mGluR2 in COS cells", "format": "cell-based, human", "procedure": "as §1, §2, §3, §4"}, "[5]": {"biological_target": "T3, TRAAK (Homo sapiens, UniProt Q9NYG8)", "T3 sequence (Q9NYG8 1-393)": "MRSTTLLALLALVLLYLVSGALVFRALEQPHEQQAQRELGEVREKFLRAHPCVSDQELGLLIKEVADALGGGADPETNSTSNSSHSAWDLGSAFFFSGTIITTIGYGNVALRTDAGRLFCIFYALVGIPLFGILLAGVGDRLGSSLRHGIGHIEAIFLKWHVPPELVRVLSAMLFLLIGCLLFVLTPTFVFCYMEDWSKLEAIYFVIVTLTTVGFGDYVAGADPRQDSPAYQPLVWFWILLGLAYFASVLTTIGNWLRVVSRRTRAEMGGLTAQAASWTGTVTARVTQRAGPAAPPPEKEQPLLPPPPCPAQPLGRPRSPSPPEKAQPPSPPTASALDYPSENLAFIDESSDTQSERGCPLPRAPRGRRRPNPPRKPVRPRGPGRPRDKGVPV", "settings": "cited from earlier work"}, "[6]": {"settings": "1 mM, 0 mV (voltage given for halothane only)"}},
  "data": [
    {"compound": "NCCc1c[nH]c2ccc(O)cc12", "note": "[5-HT, 5-hydroxytryptamine]", "values": [
      {"measurement": "effect on TREK2 current in COS cells transfected with only TREK2", "setting": "[1]", "value": "No effect"},
      {"measurement": "effect on TREK2 activity after receptor activation", "setting": "[2]", "value": "decrease of TREK2 activity"}
    ]},
    {"compound": "[Ba+2]", "note": "[Ba^2+]", "values": [
      {"measurement": "sensitivity of TREK2 currents", "setting": "[1]; 1 mM", "value": "insensitive"}
    ]},
    {"compound": "Nc1ncnc2c1nc(Sc1ccc(Cl)cc1)n2[C@@H]1O[C@@H]2COP(=O)(O)O[C@H]2[C@H]1O", "note": "[CPT-cAMP]", "values": [
      {"measurement": "inhibition of TREK2 activity", "setting": "[1]; 500 μM, at 0 mV, n=8", "value": "50±5", "unit": "%"}
    ]},
    {"compound": "[Ca+2]", "note": "[Ca^2+]", "values": [
      {"measurement": "inhibition of TREK2 (in words)", "setting": "[1]; 1 μM in the recording pipette", "value": "nor the addition of Ca^2+ in the recording pipette (1 μM) were able to induce an inhibition"}
    ]},
    {"compound": "CCCCCCCCCCCCCC(=O)O[C@@H]1[C@@H](C)[C@@]2(O)[C@@H](C=C(CO)C[C@]3(O)C(=O)C(C)=C[C@@H]23)[C@@H]2C(C)(C)[C@]12OC(C)=O", "note": "[PMA]", "values": [
      {"measurement": "inhibition of TREK2 (in words)", "setting": "[1]; 100 nM", "value": "neither the application of the PKC-activator PMA (100 nM) nor the addition of Ca^2+ in the recording pipette (1 μM) were able to induce an inhibition"}
    ]},
    {"compound": "C=C[C@H]1C[N@@]2CC[C@H]1C[C@@H]2[C@@H](O)c1ccnc2ccc(OC)cc12", "note": "[Quinidine]", "values": [
      {"measurement": "inhibition at 100 µM", "setting": "[1]; COS, 100 μM", "value": 50, "unit": "%"}
    ]},
    {"compound": "CCCCC/C=C\\C/C=C\\C/C=C\\C/C=C\\CCCC(=O)O", "note": "[arachidonic acid]", "values": [
      {"measurement": "fold increase of TREK2 current", "setting": "[1]; 10 μM, at 0 mV", "value": "8.4±1.9", "unit": "fold increase"}
    ]},
    {"compound": "ClC(Cl)Cl", "note": "[chloroform]", "values": [
      {"measurement": "fold increase of TREK2 current", "setting": "[1]; [6]", "value": "1.8±0.1", "unit": "fold increase"},
      {"measurement": "relative efficiency of anesthetics on TREK1", "setting": "[3]; 1 mM", "value": "more effective than halothane and isoflurane"}
    ]},
    {"compound": "N[C@@H](CCC(=O)O)C(=O)O", "note": "[glutamate]", "values": [
      {"measurement": "effect on TREK2 current in COS cells transfected with only TREK2", "setting": "[1]", "value": "No effect"},
      {"measurement": "effect on TREK2 activity after receptor activation", "setting": "[4]", "value": "stimulation of TREK2 activity"},
      {"measurement": "time to reverse the TREK2 increase after washing", "setting": "[4]", "value": "more than 10 minutes"}
    ]},
    {"compound": "FC(F)(F)C(Cl)Br", "note": "(centres unmarked) [halothane]", "values": [
      {"measurement": "fold increase of TREK2 current", "setting": "[1]; 0.25 mM, at +100 mV, n=10", "value": "1.4±0.1", "unit": "fold increase"},
      {"measurement": "fold increase of TREK2 current", "setting": "[1]; 0.5 mM, at +100 mV, n=10", "value": "2.6±0.3", "unit": "fold increase"},
      {"measurement": "fold increase of TREK2 current", "setting": "[1]; [6]", "value": "2.3±0.3", "unit": "fold increase"}
    ]},
    {"compound": "FC(F)OC(Cl)C(F)(F)F", "note": "(centres unmarked) [isoflurane]", "values": [
      {"measurement": "fold increase of TREK2 current", "setting": "[1]; [6]", "value": "1.9±0.1", "unit": "fold increase"}
    ]},
    {"compound": "CCCCC/C=C\\C/C=C\\CCCCCCCC(=O)O", "note": "[linoleic acid]", "values": [
      {"measurement": "activation of TREK2 by fatty acids and lysophospholipids (in words)", "setting": "[1]", "value": "activated"}
    ]},
    {"compound": "CCCCCCCCCCCCCCCC(=O)O", "note": "[palmitic acid]", "values": [
      {"measurement": "activation of TREK2 by fatty acids and lysophospholipids (in words)", "setting": "[1]", "value": "not"}
    ]},
    {"compound": "Nc1nc2ccc(OC(F)(F)F)cc2s1", "note": "[riluzole]", "values": [
      {"measurement": "effect on TREK2 current (in words)", "setting": "[1]; current monitored at +100 mV", "value": "activated"},
      {"measurement": "time course of TREK2 activation (in words)", "setting": "[1]; followed by a decrease of the activity corresponding to an inhibition", "value": "transient"},
      {"measurement": "activation of TRAAK (in words)", "setting": "[5]", "value": "permanently activated"},
      {"measurement": "activation of TREK1 (in words)", "setting": "[3]", "value": "transiently activated"}
    ]},
    {"compound": "CC[N+](CC)(CC)CC", "note": "[tetraethylammonium]", "values": [
      {"measurement": "sensitivity of TREK2 currents", "setting": "[1]; 10 mM", "value": "insensitive"}
    ]},
    {"compound": "lysophosphatidylcholine", "values": [
      {"measurement": "activation of TREK2 by fatty acids and lysophospholipids (in words)", "setting": "[1]", "value": "activated"}
    ]},
    {"compound": "lysophosphatidylinositol", "values": [
      {"measurement": "fold increase of TREK2 current", "setting": "[1]; 10 μM, at 0 mV", "value": "5.1±0.6", "unit": "fold increase"}
    ]}
  ]
}
